What was measured:
[1] = Storage stability of sepiapterin polymorph forms, HPLC purity; type: physicochemical; set-up: Impurity RRT 1.06 (HPLC) / Impurity RRT 1.08 (HPLC) / Impurity RRT 1.17 (HPLC) / Impurity RRT 1.21 (HPLC) / Impurity RRT 1.25 (HPLC) / Impurity RRT 0.62 (HPLC) / Impurity RRT 0.89 (HPLC) / Impurity RRT 0.95 (HPLC) / Impurity RRT 0.60 (HPLC): unit not given here; conditions: for % of Initial / Purity (area %): 10% RH
Protocol: (§1) Form A and F samples were placed in chambers with silica gel to remove water (the relative humidity was measured to be ˜10% RH) at different temperatures. Form D samples were placed in chambers with water (relative humidity was estimated to be ˜100% RH) at different temperatures.
(§2) The HPLC purities and XRD patterns were obtained for each of Form A/F/D samples stored at various temperatures.
Samples of sepiapterin free base polymorph Forms D, F, and A were stored at room temperature (RT), 35° C., and 50° C. The samples were analyzed by HPLC at 1 week and 4 week intervals.

[2] = Storage stability of sepiapterin polymorph forms, form change by XRD; type: physicochemical; conditions: 10% RH
Protocol: as §1, §2

[3] = 35° C./10% RH, 1 w, listed as Polymorph F
[4] = 35° C./10% RH, 4 w, listed as Polymorph F
[5] = 50° C./10% RH, 1 w, listed as Polymorph F
[6] = 50° C./10% RH, 4 w, listed as Polymorph F
[7] = RT/10% RH, 1 w, listed as Polymorph F
[8] = RT/10% RH, 4 w, listed as Polymorph F

SMILES: C[C@H](O)C(=O)C1=Nc2c(nc(N)[nH]c2=O)NC1 [Form F, sepiapterin]
- Impurity RRT 0.60 (HPLC) ([1]; 35° C./10% RH, 1 w): <0.05
- Impurity RRT 0.95 (HPLC) [1, 3]: 0.35
- Impurity RRT 1.08 (HPLC) [1, 3]: 0.06
- Impurity RRT 1.17 (HPLC) [1, 3]: 0.15
- Sepiapterin RRT 1.00 (HPLC), amount of sepiapterin [1, 3]: 99.43%
- Impurity RRT 0.60 (HPLC) ([1]; 35° C./10% RH, 4 w): <0.05
- Impurity RRT 1.08 (HPLC) ([1]; 35° C./10% RH, 4 w): <0.05
- Impurity RRT 0.95 (HPLC) [1, 4]: 0.42
- Impurity RRT 1.17 (HPLC) [1, 4]: 0.15
- Sepiapterin RRT 1.00 (HPLC), amount of sepiapterin [1, 4]: 99.43%
- Impurity RRT 0.60 (HPLC) ([1]; 50° C./10% RH, 1 w): <0.05
- Impurity RRT 0.95 (HPLC) [1, 5]: 0.58
- Impurity RRT 1.08 (HPLC) [1, 5]: 0.11
- Impurity RRT 1.17 (HPLC) [1, 5]: 0.15
- Sepiapterin RRT 1.00 (HPLC), amount of sepiapterin [1, 5]: 99.15%
- Impurity RRT 0.60 (HPLC) ([1]; 50° C./10% RH, 4 w): 0.12
- Impurity RRT 1.17 (HPLC) ([1]; 50° C./10% RH, 4 w): 0.17
- Impurity RRT 0.95 (HPLC) [1, 6]: 0.86
- Impurity RRT 1.08 (HPLC) [1, 6]: <0.05
- Sepiapterin RRT 1.00 (HPLC), amount of sepiapterin [1, 6]: 98.85%
- Sepiapterin RRT 1.00 (HPLC), amount of sepiapterin ([1]; 50° C./10% RH, 4 w, listed as polymorph F): 98.85%
- Impurity RRT 0.60 (HPLC) ([1]; Initial): <0.05
- Impurity RRT 1.08 (HPLC) ([1]; Initial): <0.05
- Impurity RRT 1.17 (HPLC) ([1]; Initial): 0.17
- Impurity RRT 0.95 (HPLC) ([1]; Initial, listed as Polymorph F): 0.09
- Sepiapterin RRT 1.00 (HPLC), amount of sepiapterin ([1]; Initial, listed as Polymorph F): 99.74%
- Sepiapterin RRT 1.00 (HPLC), amount of sepiapterin ([1]; Initial, listed as polymorph F): 99.74%
- Impurity RRT 0.60 (HPLC) ([1]; RT/10% RH, 1 w): <0.05
- Impurity RRT 1.17 (HPLC) ([1]; RT/10% RH, 1 w): 0.16
- Impurity RRT 0.95 (HPLC) [1, 7]: 0.29
- Impurity RRT 1.08 (HPLC) [1, 7]: 0.14
- Sepiapterin RRT 1.00 (HPLC), amount of sepiapterin [1, 7]: 99.42%
- Impurity RRT 0.60 (HPLC) ([1]; RT/10% RH, 4 w): <0.05
- Impurity RRT 1.08 (HPLC) ([1]; RT/10% RH, 4 w): <0.05
- Impurity RRT 1.17 (HPLC) ([1]; RT/10% RH, 4 w): 0.16
- Impurity RRT 0.95 (HPLC) [1, 8]: 0.30
- Sepiapterin RRT 1.00 (HPLC), amount of sepiapterin [1, 8]: 99.54%
- Purity of initial samples by HPLC ([1]; initial, before storage): 99.7 area %
- % of Initial ([1]; storage 1 week, 35° C.): 99.7%
- Purity (area %) ([1]; storage 1 week, 35° C.): 99.4 area %
- % of Initial ([1]; storage 1 week, 50° C.): 99.4%
- Purity (area %) ([1]; storage 1 week, 50° C.): 99.2 area %
- % of Initial ([1]; storage 1 week, RT): 99.7%
- Purity (area %) ([1]; storage 1 week, RT): 99.4 area %
- % of Initial ([1]; storage 4 weeks, 35° C.): 99.7%
- Purity (area %) ([1]; storage 4 weeks, 35° C.): 99.4 area %
- % of Initial ([1]; storage 4 weeks, 50° C.): 99.1%
- Purity (area %) ([1]; storage 4 weeks, 50° C.): 98.9 area %
- % of Initial ([1]; storage 4 weeks, RT): 99.8%
- Purity (area %) ([1]; storage 4 weeks, RT): 99.5 area %
- Stability on storage as determined by HPLC, comparison of forms in words ([1]; storage up to 4 weeks at RT, 35° C., 50° C., listed as polymorph F): significantly greater stability than polymorph A
- Form change ([2]; storage 1 week, 35° C.): No
- Form change ([2]; storage 1 week, 50° C.): No
- Form change ([2]; storage 1 week, RT): No
- Form change ([2]; storage 4 weeks, 35° C.): No
- Form change ([2]; storage 4 weeks, 50° C.): No
- Form change ([2]; storage 4 weeks, RT): No

— patent US12325706B2, “Polymorphic form of sepiapterin” (PTC Therapeutics MP, Inc., priority 2016, dated 2025)
